# Experimental data as given in patent US9062071B2, “Substituted piperidines as HDM2 inhibitors” (Merck Sharp & Dohme Corp, priority 2011, dated 2015).
# Target: HDM2 protein (Homo sapiens, UniProt Q00987)
# Assay: fluorescence polarization screening assay (FP IC50)
# Format: binding
# Details: class symbols
# Procedure: The compounds were evaluated to determine activity at the HDM2 protein by known methods such as the fluorescence polarization screening assay that measures the inhibitory concentration that achieves 50% of maximal activity (FP IC50) and the dissociation constant for inhibitor binding (FP Ki). [Zhang et al., J. Analytical Biochemistry 331: 138-146 (2004)].
# HDM2 protein, sequence (Q00987 whole entry): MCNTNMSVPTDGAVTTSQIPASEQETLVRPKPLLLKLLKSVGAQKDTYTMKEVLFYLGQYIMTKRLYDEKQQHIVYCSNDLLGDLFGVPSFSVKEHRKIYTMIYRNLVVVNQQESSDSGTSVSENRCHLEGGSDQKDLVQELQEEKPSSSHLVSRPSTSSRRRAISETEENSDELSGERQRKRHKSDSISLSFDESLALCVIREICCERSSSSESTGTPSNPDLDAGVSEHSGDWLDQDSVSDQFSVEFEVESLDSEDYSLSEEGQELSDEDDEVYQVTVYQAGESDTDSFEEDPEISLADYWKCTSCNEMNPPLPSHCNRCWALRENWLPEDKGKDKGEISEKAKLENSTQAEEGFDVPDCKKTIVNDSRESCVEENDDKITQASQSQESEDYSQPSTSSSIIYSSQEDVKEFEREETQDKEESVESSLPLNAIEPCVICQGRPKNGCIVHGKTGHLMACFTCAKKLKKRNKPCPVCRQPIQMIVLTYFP
row,IC50 [nM],SMILES
1,1 to 100,"CCC[C@H]1N(C(=O)c2ncccc2C(F)(F)F)CCC[C@@]1(Oc1csc(C(F)(F)F)c1)C(=O)N1CCc2cc(Cl)ccc2C1CCC(=O)NS(C)(=O)=O (stereo partly drawn) [Compound A63, 3-(6-chloro-2-{[(2R,3S)-2-propyl-1-{[3-(trifluoromethyl)pyridin-2-yl]carbonyl}-3-{[5-(trifluoromethyl)thiophen-3-yl]oxy}piperidin-3-yl]carbonyl}-1,2,3,4-tetrahydroisoquinolin-1-yl)-N-(methylsulfonyl) propanamide]"
2,1 to 100,"CCC[C@H]1N(C(=O)c2ncccc2C(F)(F)F)CCC[C@@]1(Oc1csc(C(F)(F)F)c1)C(=O)N1CCc2cc(Cl)ccc2C1CC(C)(C)C(=O)O (stereo partly drawn) [Compound A64, 3-(6-chloro-2-{[(2R,3S)-2-propyl-1-{[3-(trifluoromethyl)pyridin-2-yl]carbonyl}-3-{[5-(trifluoromethyl)thiophen-3-yl]oxy}piperidin-3-yl]carbonyl}-1,2,3,4-tetrahydroisoquinolin-1-yl)-2,2-dimethylpropanoic acid]"
3,1 to 100,"CCC[C@H]1N(C(=O)c2ncccc2C(F)(F)F)CCC[C@@]1(Oc1csc(C(F)(F)F)c1)C(=O)N1CCc2cc(Cl)ccc2C1CC(C)(C)C(=O)O (stereo partly drawn) [Compound A65, 3-(6-chloro-2-{[(2R,3S)-2-propyl-1-{[3-(trifluoromethyl)pyridin-2-yl]carbonyl}-3-{[5-(trifluoromethyl)thiophen-3-yl]oxy}piperidin-3-yl]carbonyl}-1,2,3,4-tetrahydroisoquinolin-1-yl)-2,2-dimethylpropanoic acid]"
4,101 to 20000,"CCC[C@H]1N(C(=O)c2ncccc2C(F)(F)F)CCC[C@@]1(Oc1csc(C(F)(F)F)c1)C(=O)N1CCc2cc(-c3ccsc3)ccc2C1 [Compound A66, 2-{[(2R,3S)-2-propyl-1-{[3-(trifluoromethyl)pyridin-2-yl]carbonyl}-3-{[5-(trifluoromethyl)thiophen-3-yl]oxy}piperidin-3-yl]carbonyl}-6-thiophen-3-yl-1,2,3,4-tetrahydroisoquinoline]"
5,1 to 100,"CCC[C@H]1N(C(=O)c2ncccc2C(F)(F)F)CCC[C@@]1(Oc1csc(C(F)(F)F)c1)C(=O)N1CCc2cc(Cl)ccc2C1CCC(=O)NCc1nn[nH]n1 (stereo partly drawn) [Compound A67, 3-(6-chloro-2-{[(2R,3S)-2-propyl-1-{[3-(trifluoromethyl)pyridin-2-yl]carbonyl}-3-{[5-(trifluoromethyl)thiophen-3-yl]oxy}piperidin-3-yl]carbonyl}-1,2,3,4-tetrahydroisoquinolin-1-yl)-N-(2H-tetrazol-5-ylmethyl)propanamide]"
6,1 to 100,"CCC[C@H]1N(C(=O)c2ncccc2C(F)(F)F)CCC[C@@]1(Oc1csc(C(F)(F)F)c1)C(=O)N1CCc2cc(Br)ccc2C1CC(=O)O (stereo partly drawn) [Compound A70, (6-bromo-2-{[(2R,3S)-2-propyl-1-{[3-(trifluoromethyl)pyridin-2-yl]carbonyl}-3-{[5-(trifluoromethyl)thiophen-3-yl]oxy}piperidin-3-yl]carbonyl}-1,2,3,4-tetrahydroisoquinolin-1-yl)acetic acid]"
7,101 to 20000,"CCC[C@H]1N(C(=O)c2ncccc2C(F)(F)F)CCC[C@@]1(Oc1csc(C(F)(F)F)c1)C(=O)N1CCc2cc(Cl)ccc2C1CC(C)(C)C#N (stereo partly drawn) [Compound A71, 3-(6-chloro-2-{[(2R,3S)-2-propyl-1-{[3-(trifluoromethyl)pyridin-2-yl]carbonyl}-3-{[5-(trifluoromethyl)thiophen-3-yl]oxy}piperidin-3-yl]carbonyl}-1,2,3,4-tetrahydroisoquinolin-1-yl)-2,2-dimethylpropanenitrile]"
8,1 to 100,"CCC[C@H]1N(C(=O)c2ncccc2C(F)(F)F)CCC[C@@]1(Oc1csc(C(F)(F)F)c1)C(=O)N1CCc2cc(Br)ccc2C1CC(=O)O (stereo partly drawn) [Compound A72, (6-bromo-2-{[(2R,3S)-2-propyl-1-{[3-(trifluoromethyl)pyridin-2-yl]carbonyl}-3-{[5-(trifluoromethyl)thiophen-3-yl]oxy}piperidin-3-yl]carbonyl}-1,2,3,4-tetrahydroisoquinolin-1-yl)acetic acid]"
9,1 to 100,"CCC[C@H]1N(C(=O)c2ncccc2C(F)(F)F)CCC[C@@]1(Oc1csc(C(F)(F)F)c1)C(=O)N1CCc2cc(Cl)ccc2C1CCCC(=O)O (stereo partly drawn) [Compound A73, 4-(6-chloro-2-{[(2R,3S)-2-propyl-1-{[3-(trifluoromethyl)pyridin-2-yl]carbonyl}-3-{[5-(trifluoromethyl)thiophen-3-yl]oxy}piperidin-3-yl]carbonyl}-1,2,3,4-tetrahydroisoquinolin-1-yl)butanoic acid]"
10,1 to 100,"CCC[C@H]1N(C(=O)c2ncccc2C(F)(F)F)CCC[C@@]1(Oc1csc(C(F)(F)F)c1)C(=O)N1CCc2cc(Cl)ccc2C1CCCC(=O)O (stereo partly drawn) [Compound A74, 4-(6-chloro-2-{[(2R,3S)-2-propyl-1-{[3-(trifluoromethyl)pyridin-2-yl]carbonyl}-3-{[5-(trifluoromethyl)thiophen-3-yl]oxy}piperidin-3-yl]carbonyl}-1,2,3,4-tetrahydroisoquinolin-1-yl)butanoic acid]"
11,1 to 100,"CCC[C@H]1N(C(=O)c2ncccc2C(F)(F)F)CCC[C@@]1(Oc1csc(C(F)(F)F)c1)C(=O)N1CCc2cc(Cl)ccc2C1C(N)=O (stereo partly drawn) [Compound A75, 6-chloro-2-{[(2R,3S)-2-propyl-1-{[3-(trifluoromethyl)pyridin-2-yl]carbonyl}-3-{[5-(trifluoromethyl)thiophen-3-yl]oxy}piperidin-3-yl]carbonyl}-1,2,3,4-tetrahydroisoquinoline-1-carboxamide]"
12,101 to 20000,"CCC[C@H]1N(C(=O)c2ncccc2C(F)(F)F)CCC[C@@]1(Oc1csc(C(F)(F)F)c1)C(=O)N1CCc2cc(Cl)ccc2C1C#N (stereo partly drawn) [Compound A76, 6-chloro-2-{[(2R,3S)-2-propyl-1-{[3-(trifluoromethyl)pyridin-2-yl]carbonyl}-3-{[5-(trifluoromethyl)thiophen-3-yl]oxy}piperidin-3-yl]carbonyl}-1,2,3,4-tetrahydroisoquinoline-1-carbonitrile]"
13,1 to 100,"CCC[C@H]1N(C(=O)c2ncccc2C(F)(F)F)CCC[C@@]1(Oc1csc(C(F)(F)F)c1)C(=O)N1CCc2cc(Cl)ccc2C1C(N)=O (stereo partly drawn) [Compound A77, 6-chloro-2-{[(2R,3S)-2-propyl-1-{[3-(trifluoromethyl)pyridin-2-yl]carbonyl}-3-{[5-(trifluoromethyl)thiophen-3-yl]oxy}piperidin-3-yl]carbonyl}-1,2,3,4-tetrahydroisoquinoline-1-carboxamide]"
14,101 to 20000,"CCC[C@H]1N(C(=O)c2ncccc2C(F)(F)F)CCC[C@@]1(Oc1csc(C(F)(F)F)c1)C(=O)N1CCc2cc(Cl)ccc2C1C#N (stereo partly drawn) [Compound A78, 6-chloro-2-{[(2R,3S)-2-propyl-1-{[3-(trifluoromethyl)pyridin-2-yl]carbonyl}-3-{[5-(trifluoromethyl)thiophen-3-yl]oxy}piperidin-3-yl]carbonyl}-1,2,3,4-tetrahydroisoquinoline-1-carbonitrile]"
15,1 to 100,"CCC[C@H]1N(C(=O)c2ncccc2C(F)(F)F)CCC[C@@]1(Oc1csc(C(F)(F)F)c1)C(=O)N1CCc2cc(Cl)ccc2[C@H]1CCC(=O)NC#N [Compound A79, 3-[(1R)-6-chloro-2-{[(2R,3S)-2-propyl-1-{[3-(trifluoromethyl)pyridin-2-yl]carbonyl}-3-{[5-(trifluoromethyl)thiophen-3-yl]oxy}piperidin-3-yl]carbonyl}-1,2,3,4-tetrahydroisoquinolin-1-yl]-N-cyanopropanamide]"
16,1 to 100,"CCC[C@H]1N(C(=O)c2ncccc2C(F)(F)F)CCC[C@@]1(Oc1csc(C(F)(F)F)c1)C(=O)N1CCc2cc(Cl)ccc2[C@@H]1CCC(=O)NC#N [Compound A80, 3-[(1S)-6-chloro-2-{[(2R,3S)-2-propyl-1-{[3-(trifluoromethyl)pyridin-2-yl]carbonyl}-3-{[5-(trifluoromethyl)thiophen-3-yl]oxy}piperidin-3-yl]carbonyl}-1,2,3,4-tetrahydroisoquinolin-1-yl]-N-cyanopropanamide]"
17,1 to 100,"CCC[C@H]1N(C(=O)c2ncccc2C(F)(F)F)CCC[C@@]1(Oc1csc(C(F)(F)F)c1)C(=O)N1CCc2cc(Cl)ccc2C1CC(=O)N1CCNC(=O)C1 (stereo partly drawn) [Compound A81, 4-[(6-chloro-2-{[(2R,3S)-2-propyl-1-{[3-(trifluoromethyl)pyridin-2-yl]carbonyl}-3-{[5-(trifluoromethyl)thiophen-3-yl]oxy}piperidin-3-yl]carbonyl}-1,2,3,4-tetrahydroisoquinolin-1-yl)acetyl]piperazin-2-one]"
18,1 to 100,"CCC[C@H]1N(C(=O)c2ncccc2C(F)(F)F)CCC[C@@]1(Oc1csc(C(F)(F)F)c1)C(=O)N1CCc2cc(Cl)ccc2C1CC(=O)N1CCC(O)CC1 (stereo partly drawn) [Compound A82, 1-[(6-chloro-2-{[(2R,3S)-2-propyl-1-{[3-(trifluoromethyl)pyridin-2-yl]carbonyl}-3-{[5-(trifluoromethyl)thiophen-3-yl]oxy}piperidin-3-yl]carbonyl}-1,2,3,4-tetrahydroisoquinolin-1-yl)acetyl]piperidin-4-ol]"
19,101 to 20000,"CCC[C@H]1N(C(=O)c2ncccc2C(F)(F)F)CCC[C@@]1(Oc1csc(C(F)(F)F)c1)C(=O)N1CCc2cc(N(C)C)ccc2C1 [Compound A83, N,N-dimethyl-2-{[(2R,3S)-2-propyl-1-{[3-(trifluoromethyl)pyridin-2-yl]carbonyl}-3-{[5-(trifluoromethyl)thiophen-3-yl]oxy}piperidin-3-yl]carbonyl}-1,2,3,4-tetrahydroisoquinolin-6-amine]"
20,1 to 100,"CCC[C@H]1N(C(=O)c2ncccc2C(F)(F)F)CCC[C@@]1(Oc1csc(C(F)(F)F)c1)C(=O)N1CCc2cc(Cl)ccc2C1CC(=O)N1CCNC(=O)C1 (stereo partly drawn) [Compound A84, 4-[(6-chloro-2-{[(2R,3S)-2-propyl-1-{[3-(trifluoromethyl)pyridin-2-yl]carbonyl}-3-{[5-(trifluoromethyl)thiophen-3-yl]oxy}piperidin-3-yl]carbonyl}-1,2,3,4-tetrahydroisoquinolin-1-yl)acetyl]piperazin-2-one]"
